The first assay concerns the target T1, epithelial sodium channel (ENaC) (Homo sapiens, UniProt P37088+P51168+P51170).
T1 construct: host or cells: primary Human Bronchial Epithelial cells (HBECs), air-liquid interface culture
T1 sequence (P37088 1-669): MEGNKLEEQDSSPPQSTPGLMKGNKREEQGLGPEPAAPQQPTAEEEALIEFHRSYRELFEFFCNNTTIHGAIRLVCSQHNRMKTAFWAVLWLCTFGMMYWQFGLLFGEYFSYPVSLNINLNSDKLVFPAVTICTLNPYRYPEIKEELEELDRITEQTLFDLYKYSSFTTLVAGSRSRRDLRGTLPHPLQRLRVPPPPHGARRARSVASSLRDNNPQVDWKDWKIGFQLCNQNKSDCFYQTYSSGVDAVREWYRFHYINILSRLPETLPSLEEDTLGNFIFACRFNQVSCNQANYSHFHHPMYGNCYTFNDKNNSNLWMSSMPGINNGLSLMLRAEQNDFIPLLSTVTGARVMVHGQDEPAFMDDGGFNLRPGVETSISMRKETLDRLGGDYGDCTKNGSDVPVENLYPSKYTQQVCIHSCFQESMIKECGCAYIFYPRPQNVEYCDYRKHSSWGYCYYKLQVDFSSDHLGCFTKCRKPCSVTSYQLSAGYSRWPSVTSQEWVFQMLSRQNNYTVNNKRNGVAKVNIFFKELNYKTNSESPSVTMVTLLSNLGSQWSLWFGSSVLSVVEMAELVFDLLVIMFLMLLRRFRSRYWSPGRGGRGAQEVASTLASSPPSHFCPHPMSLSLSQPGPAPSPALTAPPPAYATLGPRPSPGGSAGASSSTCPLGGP
T1 sequence (P51168 1-640): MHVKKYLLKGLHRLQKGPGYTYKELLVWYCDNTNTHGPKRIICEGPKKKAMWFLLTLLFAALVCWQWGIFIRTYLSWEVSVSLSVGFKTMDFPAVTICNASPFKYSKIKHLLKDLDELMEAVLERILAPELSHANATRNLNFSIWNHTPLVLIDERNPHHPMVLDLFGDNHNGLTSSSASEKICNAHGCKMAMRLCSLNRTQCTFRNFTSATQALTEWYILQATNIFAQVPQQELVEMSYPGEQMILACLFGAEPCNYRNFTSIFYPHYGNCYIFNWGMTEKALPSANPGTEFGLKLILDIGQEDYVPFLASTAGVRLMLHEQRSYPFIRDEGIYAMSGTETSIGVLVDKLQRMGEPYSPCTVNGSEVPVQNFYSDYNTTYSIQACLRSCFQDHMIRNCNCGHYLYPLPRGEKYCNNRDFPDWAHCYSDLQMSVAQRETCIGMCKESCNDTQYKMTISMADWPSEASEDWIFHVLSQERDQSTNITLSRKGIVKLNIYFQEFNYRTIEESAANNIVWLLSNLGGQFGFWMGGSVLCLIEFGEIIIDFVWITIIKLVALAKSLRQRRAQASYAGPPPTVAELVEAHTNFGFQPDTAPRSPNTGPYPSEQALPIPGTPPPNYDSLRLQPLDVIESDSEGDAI
T1 sequence (P51170 1-649): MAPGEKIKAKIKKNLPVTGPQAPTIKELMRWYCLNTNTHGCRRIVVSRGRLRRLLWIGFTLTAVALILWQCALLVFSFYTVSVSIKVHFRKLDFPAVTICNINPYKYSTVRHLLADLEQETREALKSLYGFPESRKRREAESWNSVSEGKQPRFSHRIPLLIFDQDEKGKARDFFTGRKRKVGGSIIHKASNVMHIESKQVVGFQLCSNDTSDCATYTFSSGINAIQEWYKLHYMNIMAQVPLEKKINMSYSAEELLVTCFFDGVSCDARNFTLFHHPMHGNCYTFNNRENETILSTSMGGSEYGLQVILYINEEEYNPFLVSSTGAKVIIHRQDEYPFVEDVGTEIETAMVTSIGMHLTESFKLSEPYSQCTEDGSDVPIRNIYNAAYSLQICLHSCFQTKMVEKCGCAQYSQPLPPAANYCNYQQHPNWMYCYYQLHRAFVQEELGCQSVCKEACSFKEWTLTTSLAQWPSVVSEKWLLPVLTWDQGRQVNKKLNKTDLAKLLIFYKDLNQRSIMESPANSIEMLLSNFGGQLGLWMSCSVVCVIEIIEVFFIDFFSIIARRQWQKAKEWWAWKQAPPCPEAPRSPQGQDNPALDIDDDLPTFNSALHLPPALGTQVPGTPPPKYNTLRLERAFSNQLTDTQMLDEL
Kind of assay: Short circuit current (ISC) measurements in Human Bronchial Epithelial cells, inhibition of amiloride-sensitive ISC. The format is cell-based.
Details: not given
Here is the method:
Compounds of formula (I) and their pharmaceutically acceptable salts, hereinafter referred to alternatively as “agents of the invention”, are useful as pharmaceuticals. In particular, the compounds have good ENaC blocker activity and may be tested in the following assays.
Human Bronchial Epithelial cells (HBECs) (Cambrex) were cultured under air-liquid interface conditions to provide a well differentiated mucociliary phenotype.
HBECs were cultured using a modification of the method described by Gray and colleagues (Gray et al., 1996). Cells were seeded in plastic T-162 flasks and were grown in bronchial epithelial cell growth medium (BEGM; Cambrex) supplemented with bovine pituitary extract (52 μg/mL), hydrocortisone (0.5 μg/mL), human recombinant epidermal growth factor (0.5 ng/mL), epinephrine (0.5 μg/mL), transferrin (10 μg/mL), insulin (5 μg/mL), retinoic acid (0.1 μg/mL), triiodothyronine ([…]), gentamycin (50 μg/mL) and amphotericin B (50 ng/mL). Medium was changed every 48 hours until cells were 90% confluent. Cells were then passaged and seeded (8.25×10^5 cells/insert) on polycarbonate Snapwell inserts (Costar) in differentiation media containing 50% DMEM in BEGM with the same supplements as above but without triiodothyronine and a final retinoic acid concentration of 50 nM (all-trans retinoic acid). Cells were maintained submerged for the first 7 days in culture, after which time they were exposed to an apical air interface for the remainder of the culture period. At this time, media was changed to DMEM:F12 media containing 2% v/v Ultroser G for the remainder of culture. Amphotericin B was removed from all media 3 feeds prior to use in the Using Chambers. Cells were used between days 7 and 21 after establishment of the apical-air interface. At all stages of culture, cells were maintained at 37° C. in 5% CO2 in an air incubator.
Short Circuit Current (ISC) Measurements
Snapwell inserts were mounted in Vertical Diffusion Chambers (Costar) and were bathed with continuously gassed Ringer solution (5% CO2 in O2; pH 7.4) maintained at 37° C. containing (in mM): 120 NaCl, 25 NaHCO3, 3.3 KH2PO4, 0.8 K2HPO4, 1.2 CaCl2, 1.2 MgCl2, and 10 glucose. The solution osmolarity was between 280 and 300 mOsmol/kg H2O for all physiological salt solutions used. Cells were voltage clamped to 0 mV (model EVC4000; WPI). RT was measured by applying a 1- or 2-mV pulse at 30-s intervals and calculating RT by Ohm's law. Data were recorded using a PowerLab workstation (ADInstruments).
Test compounds were prepared as a 10 mM stock solution in DMSO (95%). Serial 3-fold dilutions were freshly prepared in an appropriate vehicle (distilled H2O or Ringers solution). The initial concentration was added to the apical chamber as a 1000× concentrate in 5 μL, resulting in a final 1× concentration the 5 mL volume of the Ussing chamber. Subsequent additions of compound were added in a 3.3 μL volume of the 1000× serially diluted stock solution. At the completion of the concentration-response experiment, amiloride (10 μM) was added into the apical chamber to enable the total amiloride-sensitive current to be measured. An amiloride control IC50 was established at the start of each experiment.
Results are expressed as the mean % inhibition of the amiloride-sensitive ISC. Concentration-response curves were plotted and IC50 values generated using GraphPad Prism 3.02. Cell inserts were typically run in duplicate and the IC50 calculated on the mean % inhibition data.
Turning to `Nc1nc(N)c(C(=O)/N=C2\NCC3(CCN(C(=O)c4ccc(C(=O)N5CCC6(CC5)CN/C(=N\C(=O)c5nc(Cl)c(N)nc5N)N6)cc4)CC3)N2)nc1Cl` [Example 96], half-maximal inhibition (IC50) was put at 37 nM.

With `CC(C)(C)c1ccc(OCCn2ccc3c(C(=O)N4CCC5(CC4)CN/C(=N\C(=O)c4nc(Cl)c(N)nc4N)N5)cccc32)cc1` [Example 86, 3,5-Diamino-6-chloro-pyrazine-2-carboxylic acid [8-{1-[2-(4-tert-butyl-phenoxy)-ethyl]-1H-indole-4-carbonyl}-1,3,8-triaza-spiro[4.5]dec-(2E)-ylidene]-amide], the IC50 – broadly, the concentration needed to halve the response being measured – amounted to 8 nM.

Still in this assay, the particulars now being: inhibition of the amiloride-sensitive ISC; Human Bronchial Epithelial cells (HBECs) at air-liquid interface; compound added to apical chamber; read-out: IC50.
For `Nc1nc(N)c(C(=O)/N=C2\NCC3(CCN(C(=O)c4cn(S(=O)(=O)c5ccccc5)c5ccccc45)CC3)N2)nc1Cl` [Example 40, 3,5-Diamino-6-chloro-pyrazine-2-carboxylic acid [8-(1-benzenesulfonyl-1H-indole-3-carbonyl)-1,3,8-triaza-spiro[4.5]dec-(2E)-ylidene]-amide], the IC50 turned out to be 5.5 nM.

Turning to `Nc1nc(N)c(C(=O)/N=C2\NCC3(CCN(C(=O)c4cccc(S(=O)(=O)N5CCC(S(=O)(=O)c6ccccc6)C5)c4)CC3)N2)nc1Cl` (stereo not shown) [Example 141, 3,5-Diamino-6-chloro-pyrazine-2-carboxylic acid [8-[3-(3-benzenesulfonyl-pyrrolidine-1-sulfonyl)-benzoyl]-1,3,8-triaza-spiro[4.5]dec-(2E)-ylidene]-amide], the IC50 came to 2 nM.

As for `CC(C)COC1CCN(S(=O)(=O)c2cccc(C(=O)N3CCC4(CC3)CN/C(=N\C(=O)c3nc(Cl)c(N)nc3N)N4)c2)CC1` [Example 126, 3,5-Diamino-6-chloro-pyrazine-2-carboxylic acid [8-[3-(4-isobutoxy-piperidine-1-sulfonyl)-benzoyl]-1,3,8-triaza-spiro[4.5]dec-(2E)-ylidene]-amide], the IC50 was found to be 25 nM.

For `CC(C)NC(=O)Nc1ccc(C(=O)N2CCC3(CC2)CN/C(=N\C(=O)c2nc(Cl)c(N)nc2N)N3)cn1` [Example 65, 3,5-Diamino-6-chloro-pyrazine-2-carboxylic acid [8-[6-(3-isopropyl-ureido)-pyridine-3-carbonyl]-1,3,8-triaza-spiro[4.5]dec-(2E)-ylidene]-amide], the IC50 was 39.5 nM.

As for `CC(C)NC(=O)Nc1cc(C(=O)N2CCC3(CC2)CN/C(=N\C(=O)c2nc(Cl)c(N)nc2N)N3)ccn1` [Example 62, 3,5-Diamino-6-chloro-pyrazine-2-carboxylic acid [8-[2-(3-isopropyl-ureido)-pyridine-4-carbonyl]-1,3,8-triaza-spiro[4.5]dec-(2E)-ylidene]-amide], the IC50 was 13 nM.

With `Cc1ccc(S(=O)(=O)N[C@@H](Cc2ccccc2)C(=O)N2CCC3(CC2)CN/C(=N\C(=O)c2nc(Cl)c(N)nc2N)N3)cc1` [Example 39, 3,5-Diamino-6-chloro-pyrazine-2-carboxylic acid [8-[(S)-3-phenyl-2-(toluene-4-sulfonylamino)-propionyl]-1,3,8-triaza-spiro[4.5]dec-(2E)-ylidene]-amide], the IC50 came out at 5.5 nM.

As for `Nc1nc(N)c(C(=O)/N=C2\NCC3(CC4CCC(C3)N4C(=O)c3cccc4[nH]ccc34)N2)nc1Cl` (stereo not shown) [Example 252, (E)-N-(8-(1H-indole-4-carbonyl)-8-azaspiro[bicyclo[3.2.1]octane-3,4′-imidazolidine]-2′-ylidene)-3,5-diamino-6-chloropyrazine-2-carboxamide], the half-inhibitory concentration (IC50) turned out to be 28 nM.

For the compound `Cc1ccc(S(=O)(=O)n2ccc(C(=O)N3CCC4(CC3)CN/C(=N\C(=O)c3nc(Cl)c(N)nc3N)N4)c2)cc1` [Example 147, 3,5-Diamino-6-chloro-pyrazine-2-carboxylic acid [8-[1-(toluene-4-sulfonyl)-1H-pyrrole-3-carbonyl]-1,3,8-triaza-spiro[4.5]dec-(2E)-ylidene]-amide], the IC50 was 16 nM.

As to `Nc1nc(N)c(C(=O)/N=C2\NCC3(CCN(C(=O)C4CC(=O)N(CCCn5cccc5)C4)CC3)N2)nc1Cl` (stereo not shown) [Example 45, 3,5-Diamino-6-chloro-pyrazine-2-carboxylic acid [8-[5-oxo-1-(3-pyrrol-1-yl-propyl)-pyrrolidine-3-carbonyl]-1,3,8-triaza-spiro[4.5]dec-(2E)-ylidene]-amide], the half-maximal inhibitory concentration (IC50) amounted to 42.6 nM.

For the compound `Nc1nc(N)c(C(=O)/N=C2\NC[C@H](CCCNC(=O)Cc3ccccc3)N2)nc1Cl` [Example 34, 3,5-Diamino-6-chloro-pyrazine-2-carboxylic acid [(S)-4-(3-phenylacetylamino-propyl)-imidazolidin-(2E)-ylidene]-amide], the IC50 came to 95 nM.

`Nc1nc(N)c(C(=O)/N=C2\NCC3(CCN(C(=O)NCCc4cccc(OCc5ccccc5)c4)CC3)N2)nc1Cl` [Example 220, 2-[(E)-3,5-Diamino-6-chloro-pyrazine-2-carbonylimino]-1,3,8-triaza-spiro[4.5]decane-8-carboxylic acid [2-(3-benzyloxy-phenyl)-ethyl]-amide]: the IC50 was 8.5 nM.
